# From patent publication US20250222120A1, “SYNTHESIS OF NOVEL SMALL MOLECULE CARM1 DEGRADERS, COMPOUNDS FORMED THEREBY, AND PHARMACEUTICAL COMPOSITIONS CONTAINING THEM” (Wisconsin Alumni Research Foundation, priority 2024, published 2025)
# What was measured:
# MCF7 cells = test: Global quantitative proteomic analysis of MCF7 cells by mass spectrometry; format: cell-based, Homo sapiens; conditions: 25 nM, 4 h, two-fold cutoff, p-value ≤0.05, 3491 proteins quantified
# Experimental: (§1) Sample preparation for global proteomics analysis. Sample preparation is similar to the previous report (Ma et al. “Strategy Based on Deglycosylation, Multiprotease, and Hydrophilic Interaction Chromatography for Large-Scale Profiling of Protein Methylation” Anal. Chem. 2017, 89 (23), 12909-12917). Briefly, treated MCF7 cells were harvested by washing with PBS buffer (Gibco, pH 7.4) and lysed in RIPA buffer supplemented with protease inhibitors for 20 min, then protein concentration was determined using a BCA Protein Assay Kit (Thermo Pierce, Rockford, IL) per manufacturer instructions. […] The concentrations of the peptide mixture were measured by peptide assay (Thermo Fisher Scientific). […]
# (§2) LC-MS/MS data acquisition. Samples were analyzed on an Orbitrap Fusion Lumos Tribrid mass spectrometer (Thermo Fisher Scientific) coupled to a Dionex UltiMate 3000 UPLC system. […]
# (§3) Data analysis. Protein identification and quantification by MaxQuant (version 1.5.3.8) based database searching, using the integrated Andromeda search engine with FDR <1% at peptide and protein levels. […] For label-free protein quantification (LFQ), the MaxQuant LFQ algorithm was used to quantitate the MS signals, and the proteins' intensities were represented in LFQintesnit (Schaab et al. “Analysis of High Accuracy, Quantitative Proteomics Data in the MaxQB Database” Mol. Cell. Proteomics 2012, 11 (3), M111.014068). […]
# PRMT5 = biological target: T1, PRMT5 (Homo sapiens, UniProt O14744); test: Global proteomics of MCF7 cells, PRMT5 level; format: cell-based; conditions: 25 nM, 4 h, versus DMSO
# T1 construct: we performed a global quantitative proteomic analysis of MCF7 cells using mass spectrometry; endogenous in cells; host or cells: MCF7
# Experimental: as §1, §2, §3
# MCF10A cells = test: Cell proliferation assay, MCF10A cells; format: cell-based, human; conditions: 0.5 μM
# T1 sequence (O14744 whole entry): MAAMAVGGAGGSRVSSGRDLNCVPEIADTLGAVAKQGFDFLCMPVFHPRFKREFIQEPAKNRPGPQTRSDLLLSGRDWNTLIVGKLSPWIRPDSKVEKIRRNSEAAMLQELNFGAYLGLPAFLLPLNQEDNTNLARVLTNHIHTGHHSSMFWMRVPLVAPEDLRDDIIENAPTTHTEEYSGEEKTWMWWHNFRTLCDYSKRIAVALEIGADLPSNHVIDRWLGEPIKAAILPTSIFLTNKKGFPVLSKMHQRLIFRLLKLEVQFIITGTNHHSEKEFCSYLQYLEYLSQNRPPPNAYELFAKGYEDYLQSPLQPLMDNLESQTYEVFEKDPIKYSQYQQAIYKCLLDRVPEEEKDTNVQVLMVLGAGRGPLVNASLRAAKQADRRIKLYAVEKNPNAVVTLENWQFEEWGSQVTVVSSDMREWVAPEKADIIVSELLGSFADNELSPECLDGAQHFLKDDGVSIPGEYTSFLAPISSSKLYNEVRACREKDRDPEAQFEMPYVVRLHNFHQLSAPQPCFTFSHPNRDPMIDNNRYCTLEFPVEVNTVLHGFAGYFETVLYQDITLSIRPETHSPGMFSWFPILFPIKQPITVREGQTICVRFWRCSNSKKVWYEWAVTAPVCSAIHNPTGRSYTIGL
compound,measurement,setting,value
"CNCCN1CCC(c2cc(CN(C)C(=O)c3cccc(Oc4ccc(OCC(=O)N5CCC(CN6CCC(CN7CCN(CC(=O)N[C@H](C(=O)N8C[C@H](O)C[C@H]8C(=O)N[C@@H](C)c8ccc(-c9scnc9C)cc8)C(C)(C)C)CC7)CC6)CC5)cc4)c3)ccn2)CC1 [Compound 3b, (2S,4R)-1-((S)-3,3-dimethyl-2-(2-(4-((1-((1-(2-(4-(3-(methyl((2-(1-(2-(methylamino)ethyl)piperidin-4-yl)pyridin-4-yl)methyl)carbamoyl)phenoxy)phenoxy)acetyl)piperidin-4-yl)methyl)piperidin-4-yl)methyl)piperazin-1-yl)acetamido)butanoyl)-4-hydroxy-N—((S)-1-(4-(4-methylthiazol-5-yl)phenyl)ethyl)pyrrolidine-2-carboxamide]",Number of significantly changed proteins compared to the DMSO group,MCF7 cells,25
same,PRMT5 protein level in proteomics,PRMT5,not significantly changed
same,Cell proliferation,MCF10A cells,not to inhibit cell proliferation
